Laboratory results from patent US20050153033A1, “Lactic acid bacteria for the treatment of food” (priority 2003, published 2005).

System: C. maltaromaticum strains (CB1, CB2, CB3, LV17, UAL26, ATCC 35586 and ATCC43225)
Test: Antibiotic resistance, overall statement for the strains tested
Format: cell-based, Carnobacterium maltaromaticum
Conditions: overall statement on Table 3
Source text: The strains specified in this GRAS document (e.g., Carnobacterium maltaromaticum strains CB1, CB2, CB3, LV17, UAL26, ATCC 35586 AND ATCC43225) have been tested for their resistance to 27 antibiotics (Table 3; Griffiths Labs, 2004).

Compound	Sensitivity of the C. maltaromaticum strains tested, overall
O=C(N[C@H](CO)[C@H](O)c1ccc([N+](=O)[O-])cc1)C(Cl)Cl [Chloramphenicol]	sensitive
O=C(O)c1cn(C2CC2)c2cc(N3CCNCC3)c(F)cc2c1=O [Ciprofloxacin]	sensitive
CC[C@H]1OC(=O)[C@H](C)[C@@H](O[C@H]2C[C@@](C)(OC)[C@@H](O)[C@H](C)O2)[C@H](C)[C@@H](O[C@@H]2O[C@H](C)C[C@H](N(C)C)[C@H]2O)[C@](C)(O)C[C@@H](C)C(=O)[C@H](C)[C@@H](O)[C@]1(C)O [Erythromycin]	sensitive
CCN[C@@H]1C[C@H](N)[C@@H](O[C@H]2OC(CN)=CC[C@H]2N)[C@H](O)[C@H]1O[C@H]1OC[C@](C)(O)[C@H](NC)[C@H]1O [Netilmicin]	sensitive
CO[C@H]1/C=C/O[C@@]2(C)Oc3c(C)c(O)c4c(O)c(c(/C=N/N5CCN(C)CC5)c(O)c4c3C2=O)NC(=O)/C(C)=C\C=C\[C@H](C)[C@H](O)[C@@H](C)[C@@H](O)[C@@H](C)[C@H](OC(C)=O)[C@@H]1C [Rifampin]	sensitive
NC[C@H]1O[C@H](O[C@H]2[C@H](O)[C@@H](O[C@H]3O[C@H](CO)[C@@H](O)[C@H](N)[C@H]3O)[C@H](N)C[C@@H]2N)[C@H](N)C[C@@H]1O [Tobramycin]	sensitive
Amoxicillin + clavulanic acid	sensitive
Gentamicin	sensitive
